The text below walks through data of patent US5770623A, “Argine antagonists for inhibition of systemic hypotension associated with nitric oxide production or endothelial derived relaxing factor” (Board of Regents, The University of Texas System, priority 1995, dated 1998).

In data set [1] the target is EMT6 enzyme system (NO formation from L-arginine) (Mus musculus, UniProt P29477). The data set is described as follows: Arginine-dependent nitrite synthesis by cytosol of stimulated EMT6 cells. The note with it: Lineweaver-Burke. It is filed as biochemical, murine.
Chain of EMT6 enzyme system (NO formation from L-arginine) (P29477 whole entry): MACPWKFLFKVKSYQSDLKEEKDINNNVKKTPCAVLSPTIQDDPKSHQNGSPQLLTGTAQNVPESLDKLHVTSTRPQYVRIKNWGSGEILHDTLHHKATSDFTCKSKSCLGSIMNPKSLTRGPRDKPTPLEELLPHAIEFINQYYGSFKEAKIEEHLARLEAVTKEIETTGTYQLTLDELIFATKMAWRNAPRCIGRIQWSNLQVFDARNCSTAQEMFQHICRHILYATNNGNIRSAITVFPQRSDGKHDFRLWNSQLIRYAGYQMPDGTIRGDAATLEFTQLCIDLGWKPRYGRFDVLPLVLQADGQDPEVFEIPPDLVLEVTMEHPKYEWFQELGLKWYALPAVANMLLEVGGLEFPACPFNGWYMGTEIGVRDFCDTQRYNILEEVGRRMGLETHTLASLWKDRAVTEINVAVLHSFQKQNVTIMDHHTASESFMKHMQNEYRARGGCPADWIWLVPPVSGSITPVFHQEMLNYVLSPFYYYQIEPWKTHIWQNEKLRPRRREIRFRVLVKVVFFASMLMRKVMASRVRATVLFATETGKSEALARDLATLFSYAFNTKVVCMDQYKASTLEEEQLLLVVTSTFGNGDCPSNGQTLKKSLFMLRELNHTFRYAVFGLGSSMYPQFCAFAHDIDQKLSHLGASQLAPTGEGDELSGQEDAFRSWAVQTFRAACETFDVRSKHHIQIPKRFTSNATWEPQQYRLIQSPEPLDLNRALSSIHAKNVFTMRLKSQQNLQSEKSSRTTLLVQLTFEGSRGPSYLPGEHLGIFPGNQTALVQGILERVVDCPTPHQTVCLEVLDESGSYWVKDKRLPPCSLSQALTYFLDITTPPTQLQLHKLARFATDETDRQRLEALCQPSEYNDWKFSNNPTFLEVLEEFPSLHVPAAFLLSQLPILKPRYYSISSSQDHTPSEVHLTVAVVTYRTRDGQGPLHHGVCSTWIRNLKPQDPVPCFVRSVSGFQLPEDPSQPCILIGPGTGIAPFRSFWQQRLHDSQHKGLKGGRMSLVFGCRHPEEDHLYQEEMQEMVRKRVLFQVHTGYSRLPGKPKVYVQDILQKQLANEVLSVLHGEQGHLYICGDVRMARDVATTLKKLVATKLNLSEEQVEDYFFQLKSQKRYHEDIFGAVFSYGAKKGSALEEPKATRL
Procedure: Thus EMT6 cytosolic preparations (i.e., cell-free solutions) were prepared and an enzyme activity was characterized which forms NO and citrulline from arginine. This reaction requires NADPH (FIG. 18 and 19) and other cofactors.
Incubation mixtures were 100 μl total volume containing: 40 μl cytosol (100,000×g supernatant), 2 mM L-arginine, 2 mM NADPH, 20 mM TRIS (pH 8.0) and a "cocktail" of protease inhibitors.
From kinetic studies an apparent Michaelis-Menton constant for L-arginine utilization by the enzyme was deduced. FIG. 20 is a Lineweaver-Burke plot for synthesis of nitrite from L-arginine by cytosol from stimulated EMT6 cells. The rate of nitrite formation was evaluated over a range of L-arginine (ARG) concentrations (from 0.03-2.0 mM) under conditions similar to that described for FIG. 18, except that incubates contained 50 μl cytosol in a total volume of 80 μl. Open and filled circles represent results obtained with each of two cytosol preparations. […] N^G -substituted arginine analogs were screened for precise quantitation of their ability to inhibit arginine-dependent NO formation by the EMT6 enzyme system.
Data set [2] relates to bovine aortic endothelial cells (BAEC). Briefly: A23187-stimulated nitrite release from bovine aortic endothelial cells. It is filed as cell-based. The note with it: 3 μg/ml A23187, 4-hour, FIG. 12. The procedure:
The % inhibition of relaxation is calculated from the maximum ACh-induced relaxation observed in the presence of the arginine analog relative to that in its absence. Points represent mean values±SEM (n=4-6). […] Another N^G substitution tested for inhibition of induced nitrite release had two methyl groups on one of the arginine guanidino nitrogens. Concentration-response relationships for inhibition of A23187-stimulated nitrite release by bovine aortic endothelial cells (BAEC) are shown in FIG. 9a for the N,N-disubstituted derivative in comparison with several monosubstituted derivatives. Nitrite production was measured as an indication of nitric oxide synthesis since nitric oxide spontaneously decays to nitrite. Nitrite production by BAEC in a 2-hr. period was assessed in an L-arginine-free medium alone or in the presence of the indicated concentration of arginine analogs. The points plotted represent means±S.E. of the percent inhibition of nitrite production observed in 3 individual BAEC culture wells. The key on FIG. 9a indicates the groups substituted on the guanidino nitrogens of L-arginine.
Points are mean values±SEM (n=3).

The test system of data set [3] is untreated dogs. Briefly: NMMA in untreated dogs (Example 5). It is filed as in vivo, dog. The procedure: Administration of ET to dogs was clearly more toxic and less predictable than TNF administration. […] Within 1.5 minutes the blood pressure increased by 33±2.5 mmHg.
Data set [4] concerns dog coronary (CA) and femoral artery (FA). The data set is described as follows: ACh-induced relaxation of dog coronary and femoral artery. Conditions: NMMA 100 μM. As for the experimental part: (§1) Guinea pig pulmonary artery (GP PA), rat and rabbit aorta (Ao), and dog coronary (CA) and femoral artery (FA) were precontracted with NE (1 μM) and relaxed with a single concentration of ACh. Concentration of ACh: GP PA 1 μM, rat Ao […], rabbit Ao 0.3, dog CA […] and […] 0.1 μM. […] The concentrations of L-citrulline (L-cit), D-arginine (D-arg) and L-arginine (L-arg) were all 0.5 mM. Bars are mean values±SEM (n=4-6).

In a further data set the test system is anesthetized guinea pig. The data set is described as follows: Pressor effect in the anesthetized guinea pig. It is filed as in vivo. The note with it: 1-10 mg/kg i.v. (L-NMA). From the text:
Points are mean changes in diastolic arterial pressure (±SEM; n=4-5). Control systolic and diastolic BP was 75±3 and 51±3 mm Hg, respectively.

In a further data set the test system is rat aorta. The data set is described as follows: ACh-induced relaxation of rat aorta. The note with it: NMMA 5 μM. As for the experimental part: as §1
The subject of data set [5] is mongrel dogs with TNF-induced hypotension. Conditions: Kilbourn et al. 1990; listed as L-NMA; cited from earlier work.
Another data set has as its system L929 cells. The data set is described as follows: Cytolytic activity of rh-TNF against Actinomycin D-treated L929 cells. It is filed as cell-based, murine. As for the experimental part: TNF bioactivity was measured by the cytotoxicity towards murine L929 cells, in vitro.
Data set [6] deals with murine endothelial cells exposed to Gamma-Interferon and TNF (nitric oxide production). The note with it: mouse endothelial cells, immunomodulators and endotoxin; cited from earlier work.
Data set [7] relates to human LAK cells against Raji target cells. The data set is described as follows: IL-2 mediated lymphokine activated killer cell activity in vitro. It is filed as cell-based.
Procedure: *% Lysis calculated from the % of release of radioactivity from ^51
Crlabeled Raji Target cells minus spontaneous release.
The subject of data set [8] is untreated dogs. It is filed as in vivo, dog. The procedure:
Recombinant human TNF specific activity 2×10^7 units/mg, was from the Niposn Chemical Corporation, Tokyo, Japan. TNF was administered at a dose of 10 mcg/kg in a volume of 10 ml of phosphate buffered saline containing 2 mgs/ml of dog albumin. […] Arginine was obtained from Sigma Chemical Company, St. Louis, Mo.
Four conditioned mongrel dogs, 2 males and 2 females, weighing 28 to 30 kgs, were studied. Care of the animals were in accordance with the recommendation of the American Association for Accreditation of Laboratory Animals [DHEW(DHHS) publication no. (NIH) 78-23, revised, 1978]. On the day of the experiment, the dogs were fasted overnight. They were anesthetized with phenobarbital (10 mg/kg). They were then intubated orally with a #10 fr. endotracheal tube and ventilated with a Harvard pump ventilator at a rate of 12 breaths per minute and a tidal volume of 15 ml/kg. An arterial line was percutaneously placed in the femoral artery on the day of the experiment.
Mean (electronic) and phasic systemic arterial pressures (SAP) were continuously recorded on a Hewlett-Packard recording system (model 7758B) using strain gauge manometers (Hewlett-Packard model 1290A) which were connected to the arterial line. Heart rate (HR) was determined from an EKG tracing and continuously recorded on the Hewlett-Packard recording system. Oxyhemoglobin saturation (SaO2) was obtained using a pulse oximeter (BIOX 111, Boulder, Colo.). continuous time-series records of SAP, HR, and SaO2 were obtained using a Lab Master analog-to-digital convertor (16 channel, 12 bit, 30 kHz; Scientific Solutions, Inc.) sampling at 55 Hz and storing the 6 sec averages on a magnetic disk.
This was followed by a compensatory decrease in the HR with a return of the BP to baseline. The NMMA-induced bradycardia lasted 31 minutes. This response was not observed in animals which had been previously treated with TNF. In a subsequent experiment (FIG. 7a) the hypotensive response to TNF was especially severe, with a decrease in BP from 125 mm to 36 mmHg. […] This was associated with a decrease in the HR from 101 to 92 beats/minute. […] In a second control study nitroglycerin was infused at a rate of 28 μg/kg/minute, IV, to lower the blood pressure to the same level as that observed with tumor necrosis factor (FIG. 7c).

The test system of data set [9] is systemic hypotension mediated by interleukin-1. Briefly: Interleukin-1 mediated systemic hypotension. It is filed as in vivo. The note with it: after N^G-aminoarginine.

The structures appear in SMILES notation. “Also recorded” adds a separate entry of the source. Where only a bound is given, the exact number is not on record here.

Consider `CNC(=N)NCCC[C@H](N)C(=O)O` [NMMA, N^G -methyl-L-arginine], for which the mode of inhibition entry in data set [1] is listed as “competitive inhibitor”. Also, the “effect on EDRF/NO (nitrite) release” value in [2] is “inhibits EDRF/NO release”. The “increase in blood pressure by NMMA” value in the data set on untreated dogs [3] (normal untreated dog, compared with 20 mg/kg NMMA in lethal shock) is listed as 35 mm; with untreated dogs [3] (untreated animals) it was 12 mm Hg. Also, the “inhibition of EDRF/NO in vascular preparation” value (in [4]; in the data set on rat aorta) was “arginine reversible inhibitor of EDRF/NO” throughout. Moreover, the “effect on diastolic BP / pressor effect (words)” value is recorded as “increase the resting blood pressure” in the data set on anesthetized guinea pig and “sustained rise in diastolic BP” in the data set with anesthetized guinea pig (listed as L-NMA). The “reversal of TNF-induced hypotension” value in data set [5] is on record as “completely reversed; also recorded: substantially reversed”. Also, the “TNF Activity” value in the data set on L929 cells ([NMMA] 0.125 mM) was found to be 536.9 Units/ml; in the data set on L929 cells ([NMMA] 0.250 mM), 538.2 Units/ml; with L929 cells ([NMMA] 0.500 mM) it was 562.4 Units/ml; in the data set with L929 cells ([NMMA] 1.0 mM), 415.7 Units/ml. Moreover, in the data set on L929 cells (murine L929 cells, in vitro), the “effect on cytolytic effect of TNF towards tumor cells” value is “did not alter the cytolytic effect of TNF”. The “effect on nitrite accumulation” value in [6] was “blocked”. Also, in data set [7] ([NMMA] 2.0 mM, E:T = 80:1, 40 U/ml IL2), the “% Target Cell Lysis” value came to 75.1 ± 4.1%. Besides, the “effect on proliferation phase or lytic phase of LAK cells” value in data set [7] (exposed to IL-2, in vitro) is listed as “did not alter”. For the same molecule, the “anti-tumor activity of IL-2 in vitro” value in data set [7] (in vitro) is “does not inhibit the anti-tumor activity”. The “duration of NMMA-induced bradycardia” value with untreated dogs [8] (dog, in vivo) is 31 min. Further, in the data set on untreated dogs [8] (untreated dogs (n=3), NMMA alone), the “time to initial blood pressure increase” value was at most 1.7 min. Moreover, in the data set on untreated dogs [8] (untreated dogs, FIG. 7b), the “time within which blood pressure increased” value is at most 2 min. For the same molecule, in the data set on untreated dogs [8] (untreated dogs, FIG. 7b, within 2 minutes), the “blood pressure increase by NMMA” value was 12 mmHg. In addition, in the data set on untreated dogs [8] (untreated dogs, FIG. 7b, decrease from 101), the “HR after NMMA” value is reported as 92 beats/minute.

On to `N=C(N)NCCC[C@H](N)C(=O)O` [L-arginine, reference compound], for which the “effect of L-arginine on the reversal” value in data set [9] is reported as “obviated this reversal”.
